Some test systems named below: OVCAR-5 ovarian; SF-268 CNS; SN12C renal; HT29 colon; SNB-19 CNS; UACC-257 melanoma; MDA-MB-435; OVCAR-8 ovarian; MALME-3M melanoma; K-562 leukemia.
What all share (test): inhibition of tumour cell growth, NCI panel, 48 h

The structures appear in SMILES notation.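 Briefly, cells in 96-well plates were exposed to five compound concentrations for 48 h, and endpoints were estimated by linear interpolation. GI50 = concentration required for 50% inhibition of growth. TGI: concentration producing complete growth inhibition.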 Where only a bound is given, the exact number is not on record here.

Consider `C#C[C@@]1(O)[C@@H](CO)O[C@@H](n2ccc3c(N)ncnc32)[C@@H]1O`, for which the GI50 in the experiment with OVCAR-5 ovarian is 3.1 µM; with SF-268 CNS, 2330 nM; with SN12C renal, 798 nM; in the experiment with HT29 colon, 970 nM; with SNB-19 CNS, 1620 nM; in the experiment on UACC-257 melanoma, 2310 nM. Also, the GI50 with MDA-MB-435 is 1480 nM; with OVCAR-8 ovarian it was 1030 nM; in the experiment with MALME-3M melanoma it was 1680 nM; with K-562 leukemia it was 806 nM. Besides, the TGI in the experiment with OVCAR-5 ovarian was 8.54 µM; in the experiment with SF-268 CNS, 26.1 µM; in the experiment on SN12C renal, 3.91 µM; with SNB-19 CNS, 6.61 µM; in the experiment on UACC-257 melanoma, 7.06 µM; in the experiment on MDA-MB-435, 3.49 µM. In addition, the values for the TGI with OVCAR-8 ovarian, with MALME-3M melanoma and with K-562 leukemia were 4.11 µM, 5.55 µM and above 100 µM, respectively.
